Measured values published in ChEMBL document CHEMBL4840340, “Design, synthesis, kinetic, molecular dynamics, and hypoglycemic effect characterization of new and potential selective benzimidazole derivatives as Protein Tyrosine Phosphatase 1B inhibitors” (Bioorg Med Chem, 2021).
Activity calls are given as the source filed them. The calls are words filed in the database; no cut-off is given here.

Tests used:
[1] = molecular target: T1, Tyrosine-protein phosphatase non-receptor type 1 (Homo sapiens) (UniProt P18031); assay: Inhibition of PTP1B (unknown origin) assessed as inhibition constant for uncompetitive inhibition using pNPP as substrate by spectrophotometric analysis
T1 sequence (whole entry): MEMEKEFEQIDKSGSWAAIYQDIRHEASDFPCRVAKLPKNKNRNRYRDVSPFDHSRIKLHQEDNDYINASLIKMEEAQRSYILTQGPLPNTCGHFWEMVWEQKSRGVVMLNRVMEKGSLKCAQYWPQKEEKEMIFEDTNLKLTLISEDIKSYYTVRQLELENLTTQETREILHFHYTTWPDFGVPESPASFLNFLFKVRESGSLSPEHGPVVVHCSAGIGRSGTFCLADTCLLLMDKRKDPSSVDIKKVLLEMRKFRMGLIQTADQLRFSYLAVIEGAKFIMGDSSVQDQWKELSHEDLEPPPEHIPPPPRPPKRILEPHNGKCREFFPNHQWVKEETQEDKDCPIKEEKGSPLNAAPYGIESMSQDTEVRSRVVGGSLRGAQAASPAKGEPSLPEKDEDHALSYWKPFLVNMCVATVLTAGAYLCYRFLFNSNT

Rattus norvegicus = assay: Hypoglycemic activity in high fat diet-fed induced type 2 diabetic mellitus Wistar rat model assessed as blood glucose level at 60 mg/kg, ip by glucose tolerance test; assay type: functional
[2] = molecular target: T1, Tyrosine-protein phosphatase non-receptor type 1 (Homo sapiens); assay: Inhibition of PTP1B (unknown origin) at 40 uM using pNPP as substrate by spectrophotometric analysis
[3] = molecular target: T2, Tyrosine-protein phosphatase non-receptor type 1 (Homo sapiens, UniProt P18031); assay: Inhibition of PTP1B (unknown origin) assessed as inhibition constant using pNPP as substrate by spectrophotometric analysis
T2 sequence (P18031 whole entry): T1 sequence (whole entry)

[4] = molecular target: T1, Tyrosine-protein phosphatase non-receptor type 1 (Homo sapiens); assay: Mixed type inhibition of PTP1B (unknown origin) using varying levels of pNPP as substrate by Lineweaver-Burk plot analysis
[5] = molecular target: T1, Tyrosine-protein phosphatase non-receptor type 1 (Homo sapiens); assay: Inhibition of PTP1B (unknown origin) at 20 uM using pNPP as substrate by spectrophotometric analysis

Q: How did the alphaKi [1] turn out when `O=C(CSc1nc2cc(Oc3cccc4ccccc34)ccc2[nH]1)Nc1ccccc1C(=O)O` was run?
A: 60.6 µM

Q: What about the Activity (Rattus norvegicus) of the same molecule?
A: 15%

Q: And the inhibition [2]?
A: 45%

Q: What about the Ki [3] of the same molecule?
A: 23.3 µM

Q: And the inhibition [4]?
A: Active

Q: For `CCOC(=O)c1ccc(NC(=O)CSc2nc3cc(Oc4ccc5ccccc5c4)ccc3[nH]2)cc1`, which inhibition [5] is on record?
A: inactive

Q: With `O=C(CSc1nc2cc(Oc3ccc4ccccc4c3)ccc2[nH]1)Nc1ccc(C(=O)O)cc1` as the molecule, how does the alphaKi [1] read?
A: 113 µM

Q: What about the Activity (Rattus norvegicus) of the same molecule?
A: 23%

Q: And the inhibition [2]?
A: 30%

Q: What about the Ki [3] of the same molecule?
A: 35.2 µM

Q: What about the inhibition [4] of the same molecule?
A: Active

Q: How did the alphaKi [1] turn out when `O=C(CSc1nc2cc(Oc3cccc4ccccc34)ccc2[nH]1)Nc1ccc(C(=O)O)cc1` was run?
A: 124 µM

Q: And the Activity (Rattus norvegicus)?
A: 19%

Q: And the inhibition [2]?
A: 40%

Q: And the Ki [3]?
A: 30.2 µM

Q: And the inhibition [4]?
A: Active

Q: With `O=C(CSc1nc2cc(Oc3ccc4ccccc4c3)ccc2[nH]1)Nc1nccs1` as the molecule, how does the inhibition [5] read?
A: inactive

Q: Which inhibition [5] does the source give for `CCOC(=O)c1ccc(NC(=O)CSc2nc3cc(Oc4cccc5ccccc45)ccc3[nH]2)cc1` here?
A: inactive

Q: `CCOC(=O)c1csc(NC(=O)CSc2nc3cc(Oc4ccc5ccccc5c4)ccc3[nH]2)n1` was tested. Which inhibition [5] did it give?
A: inactive

Q: Which inhibition [5] does the source give for `O=C(CSc1nc2cc(Oc3ccc4ccccc4c3)c(Cl)cc2[nH]1)Nc1nccs1` here?
A: inactive

Q: With `CCOc1cc2nc(SCC(=O)Nc3ccc(C(=O)O)cc3)[nH]c2cc1Cl` as the molecule, how does the inhibition [2] read?
A: 0%

Q: For `O=C(CSc1nc2cc(Oc3cccc4ccccc34)ccc2[nH]1)Nc1nccs1`, which inhibition [5] is on record?
A: inactive

Q: With `O=C(CSc1nc2cc(Oc3ccc4ccccc4c3)c(Cl)cc2[nH]1)Nc1ccc(C(=O)O)cc1` as the molecule, how does the alphaKi [1] read?
A: 37.8 µM

Q: What about the Activity (Rattus norvegicus) of the same molecule?
A: 28%

Q: What about the inhibition [2] of the same molecule?
A: 75%

Q: And the Ki [3]?
A: 12.6 µM

Q: And the inhibition [4]?
A: Active

Q: How did the inhibition [5] turn out when `Cc1cc(NC(=O)CSc2nc3cc(Oc4ccc5ccccc5c4)ccc3[nH]2)on1` was run?
A: inactive
